“And” between values parts separate entries of the source, which are not always exact repeats. Equal values may be shown once. Read-outs that look alike come from different tables or passages of the source.
Tests used:
[1] = Abiotic loss in negative controls of the hepatocyte clearance assay (cell-free media, metabolically inactivated hepatocytes); assay type: in vitro ADME; settings: for Hep_Stab_Fail: 120 min
In short: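 Test compound at 1 μM incubated at 37 °C with shaking in complete William's medium E, either cell-free or with metabolically inactivated hepatocytes, then quenched with ice-cold acetonitrile for quantitative analysis.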

in vitro [2] = settings: both, human, plasma
human plasma [3] = settings: both, human, 5 h, 10 μM; for PPB_Stab_Fail: plasma
human plasma [4] = assay: Ultracentrifugation (UC) plasma protein binding assay, fraction unbound in plasma (fup); settings: for Mean fu: fraction unbound in human plasma, used for IVIVE
[5] = as above; settings: both, human, plasma
human plasma [6] = assay: Chemical stability in plasma over the UC assay time course (T5hr/T1hr)
human plasma [7] = settings: both, human, 5 h, 10 μM
human primary cells = settings: cited from earlier work
[8] = In vitro-in vivo extrapolation (IVIVE) to Css and administered equivalent dose (AED); design: species or system human; settings: for Clhep: IVIVE, hepatocyte Clint scaled to whole-liver clearance; for AED: administered equivalent dose from LOEC and Css; for Fub: fub=fup/(B:P), Fub set to 1 if needed; for CLint: scaled with HPGL 110 mill cells/g, Vl 1596 g
In short: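 Measured plasma protein binding (fup) and hepatocyte Clint served as IVIVE inputs to estimate human steady-state plasma concentration (Css). fup was converted to blood unbound fraction using blood:plasma partitioning, and Clint was scaled to whole-liver clearance (L/h). AEDs were derived by combining Css with published in vitro lowest-observed effective concentrations.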

in vitro [9] = settings: both, human, plasma; remark: listed apart in the source
[10] = tested on: pooled human cryopreserved primary hepatocyte suspensions; assay: Hepatic metabolic stability (hepatocyte clearance) assay, substrate depletion; assay type: in vitro ADME
In short: (§1)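 Pooled 50-donor human cryopreserved hepatocytes (50,000 cells/100 μL) incubated with 1 μM compound at 37 °C with shaking. Parent loss quantified against internal standards over time to T240 in triplicate; T½ and Clint (μL/min/million cells) from ln concentration vs time, corrected for abiotic loss in cell-free and inactivated-hepatocyte controls.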

[11] = as above; assay type: in vitro ADME, human; settings: both sexes, human
In short: as §1

human plasma [12] = settings: legacy PFAS included for comparison; cited from earlier work
[13] = tested on: pooled human cryopreserved primary hepatocyte suspensions; settings: legacy PFAS included for comparison; cited from earlier work
[14] = BioSeek lowest-observed effect concentration used for AED
[15] = minimum lowest-observed effect concentration, BioSeek platform
[16] = Assuming 1 mg/kg/day dose rate, BW 70 kg
[17] = human steady-state plasma concentration, assuming 1 mg/kg/day dosage

FC(F)(F)C(F)(C(F)(F)F)C(F)(F)C(F)(F)CC1CO1 (centres unmarked) [3-(Perfluoro-3-methylbutyl)-1,2-propenoxide]
Hep_Stab_Fail ([1]; both, human, 1 μM): 1
remaining at 5 h, 10 μM (in vitro [2]): 0%
PPB_Stab_Fail (human plasma [3]): 1

Cc1ccc([N+](=O)[O-])cc1 [4-Nitrotoluene, 4-nitrotoluene, reference compound]
Fup.Med (human plasma [4]; median fraction unbound in plasma, UC assay Level4): 0.0679
Fup.point (human plasma [4]; point estimate of fraction unbound in plasma, UC assay Level4): 0.0612
Fraction Unbound (fu), Run-specific Avg (human plasma [4]; run-specific average): 0.0534 and 0.08
fraction unbound at 5 h, 10 μM ([5]; Fraction Unbound (fu), Run-specific Avg, run-specific average): 0.06
fraction unbound at 5 h, 10 μM ([5]; Mean Fu (fraction unbound), mean over all UC runs and replicates, human plasma): 0.0581
Mean Stability (T5hr/T1hr) (human plasma [6]; mean over all UC runs and replicates, human plasma): 0.816
Fstable.Med (human plasma [6]; median fraction stable in plasma, UC assay Level4): 0.779
Stability (T5hr/ T1hr), Run-specific Avg (human plasma [6]; run-specific average): 0.82 and 0.84 and 0.81 and 0.78

OCC(F)(F)OC(F)(F)C(F)(F)OC(F)(F)C(F)(F)OC(F)(F)CO [1H,1H,11H,11H-Perfluorotetraethylene glycol]
No Cells BkgdCl, Clearance ([1]; 1 μM): 4.374
half-life at 1 μM ([1]; both sexes, human, hepatocytes): 4.08 h
HT BkgdCl, Clearance ([1]; both, human, 1 μM): 5.666
Hep_Stab_Fail ([1]; both, human, 1 μM): 0
half-life at 1 μM ([1]; buffer): 5.28 h
HT BkgdCl, Slope ([1]; heat treated hepatocytes control, 0 vs 240 min): -0.002833
No Cells BkgdCl, Slope ([1]; no cells control, 0 vs 240 min): -0.002187
Fup.Med (human plasma [7]): 0.0115
Fup.point (human plasma [7]): 0.0127
LOEC (human primary cells; [14]): 2.00 µM
LOEC (human primary cells; [15]): 2 µM
Fstable.Med (human plasma [3]): 0.989
Mean Stability (human plasma [3]): 1.051
Stability (T5hr/ T1hr), Run-specific Avg (human plasma [3]): 0.998
PPB_Stab_Fail (human plasma [3]): 0
Css [8, 16]: 0.61 mg/L and 1.50 uM
Clhep [8]: 4.634 L/h
AED [8]: 1.3364 mg/kg/day
Fub [8]: 0.02327
Css [8, 17]: 1.50 µM
CLint [8]: 3498911 µL/min
fraction unbound at 5 h, 10 μM (in vitro [9]; Fraction Unbound (fu), replicates A, B, C): 0.0147
fraction unbound at 5 h, 10 μM (in vitro [9]; Mean Fu): 0.013
fraction unbound at 5 h, 10 μM (in vitro [9]; Mean fu): 0.0128
Concentration (nM), Time 240 min ([10]; both, human, 240 min, 1 μM): 88.3883 nM
Linear Regression Results, Best-Fit Values, Slope ([10]; hepatocyte time course): -0.01215
half-life at 1 μM ([11]; hepatocytes): 0.951 h
hepatocyte CLint at 1 μM ([11]; hepatocytes, Bkgd-Sub Clearance (µL/min/106 hepatocytes)): 19.9 µL/min/1e6 cells
hepatocyte CLint at 1 μM ([11]; hepatocytes, In Vitro Clint): 19.9 µL/min/1e6 cells
hepatocyte CLint at 1 μM ([11]; hepatocytes, Linear Regression Results, Best-Fit Values, Clearance): 24.3 µL/min/1e6 cells
hepatocyte CLint at 1 μM ([11]; hepatocytes, Unadj Clint): 24.3 µL/min/1e6 cells
hepatocyte CLint at 1 μM ([11]; hepatocytes, Unadj in vitro Clint): 24.3 µL/min/1e6 cells
hepatocyte CLint at 1 μM ([11]; hepatocytes, clearance rate in hepatocytes): 20 µL/min/1e6 cells
hepatocyte CLint at 1 μM ([11]; s9, Clint.1.Med): 5.23 µL/min/1e6 cells

N.O=C(O)C(F)(F)C(F)(F)C(F)(F)C(F)(F)C(F)(F)C(F)(F)C(F)(F)F [Ammonium perfluorooctanoate (PFOA), Ammonium perfluorooctanoate, reference compound]
Mean fu (human plasma [4]): 0.0006
fup (human plasma [12]): 0.0006
In Vitro Clint [13]: 0.27 μL/min/10^6 cells
LOEC (human primary cells; [14]): 2.00 µM
LOEC (human primary cells; [15]): 2 µM
Css [8, 16]: 282.38 mg/L and 681.96 uM
Clhep [8]: 0.003 L/h
AED [8]: 0.0029 mg/kg/day
Fub [8]: 0.001091
Css [8, 17]: 681.96 µM
Css ([8]; human steady-state plasma concentration, assuming 1 mg/kg/day dosage, listed as PFOA): 682 µM
CLint [8]: 47401.2 µL/min

O=S(=O)([O-])C(F)(F)C(F)(F)C(F)(F)C(F)(F)C(F)(F)C(F)(F)C(F)(F)C(F)(F)F.[K+] [Potassium perfluorooctanesulfonate, reference compound]
Mean fu (human plasma [4]): 0.004
fup (human plasma [12]): 0.0040
In Vitro Clint [13]: 1.81 μL/min/10^6 cells
LOEC (human primary cells; [14]): 7.00 µM
LOEC (human primary cells; [15]): 7 µM
Css [8, 16]: 15.71 mg/L and 31.41 uM
Clhep [8]: 0.138 L/h
AED [8]: 0.2229 mg/kg/day
Fub [8]: 0.007273
Css [8, 17]: 31.41 µM
CLint [8]: 317764 µL/min
